These results are taken from PubChem BioAssay AID1996.

In brackets after ≈: the same amount, converted by molar mass.

The conditions of the data set: buffer; pH 7.4; 200.0 µM.
For `Cc1oc(-c2ccc(Cl)cc2)cc1C(=O)NC1CCN(Cc2ccccc2)CC1`, the kinetic solubility (as a rule, solubility judged after dilution from a stock solution rather than from solid) was 1 µg/mL (≈ 2.45 µM).
Under `COc1ccccc1C(=O)COC(=O)CN1C(=O)c2ccccc2C1=O` stands 6.4 µg/mL (≈ 18.1 µM); under `COc1ccc(NC(=O)Nc2cccs2)cn1`, above 37.4 µg/mL; under `O=C(Nc1ccc(N2CCCC2)cc1)c1ccc(Cl)cc1Cl`, 0.5 µg/mL (≈ 1.49 µM).
The figure for `CCOP(=O)(OCC)C(NC(=O)c1ccc(OC)cc1)c1ccccc1` (stereo not drawn) is 53.8 µg/mL (≈ 143 µM).
The figure for `COC(=O)c1ccccc1NC(=O)c1ccc(F)cc1` is below 0.6 µg/mL; for `O=C(O)C1C2C=CC(C2)C1C(=O)Nc1cccc(C(F)(F)F)c1` (stereo not drawn) it is 10.3 µg/mL (≈ 31.7 µM); for `COc1ccccc1N1CCN(CC(=O)Nc2nccs2)CC1` it is above 49.9 µg/mL.
`Cc1ccccc1NC(=S)N1CCN(c2ccccc2Cl)CC1` yielded a solubility (kinetic) of 17.5 µg/mL (≈ 50.6 µM).
The figure for `CN(C)Cc1ccccc1C(O)(c1ccccc1)c1ccccc1` is 1.2 µg/mL (≈ 3.78 µM); for `Cc1ccccc1-n1ccnc1SCC(=O)NCc1ccco1` it is above 49.1 µg/mL; for `NC1=NC(=O)/C(=C/c2ccsc2)S1` it is 19.5 µg/mL (≈ 92.7 µM).
Under `CCN(CC)S(=O)(=O)c1ccc(N2CCOCC2)c(NC(=O)c2ccc(=O)[nH]c2)c1` stands above 65.2 µg/mL; under `Cc1ccnc(NC(=O)CCNS(=O)(=O)c2ccc(C)c(C)c2)c1`, 45.8 µg/mL (≈ 132 µM); under `COc1ccc(NC(=S)Nc2ccc(C)c(Cl)c2)cc1OC`, 36.5 µg/mL (≈ 108 µM).
Under `Cc1cc(C)c(S(=O)(=O)c2ccccc2C(C)C)c(=O)[nH]1` stands 7.2 µg/mL (≈ 23.6 µM); under `COc1cccc(-c2onc3ccc(C(C)=O)cc23)c1`, 2.9 µg/mL (≈ 10.8 µM); under `O=C(Cc1ccc(Br)cc1)Nc1nc2ccccc2[nH]1`, 2.4 µg/mL (≈ 7.27 µM).
In the case of `O=C(CSc1ncnc2ccccc12)NCC(=O)c1ccccc1`, the kinetic solubility was determined as 7.1 µg/mL (≈ 21 µM).
The figure for `CCOC(=O)c1ccc2[nH]c3c(c2c1)CCCC3` is 5.5 µg/mL (≈ 22.6 µM); for `O=C(O/N=C1\CCCc2ccccc21)C1CC1` it is 28.3 µg/mL (≈ 123 µM); for `Nn1c(-c2ccccc2)nc2ccccc2c1=O` it is above 35.6 µg/mL.
The figure for `CCOC(=O)N1CCN(C(=S)NC(=O)c2cccc(OC)c2)CC1` is above 52.7 µg/mL; for `COc1cccc(NC(=O)Nc2cccnc2)c1` it is above 36.5 µg/mL; for `N#Cc1ccc(N2CCCNCC2)nc1` it is above 30.3 µg/mL.
The figure for `COc1cc(/C=C(/C#N)C(=O)NCc2ccccc2)cc(OC)c1OC` is 20 µg/mL (≈ 56.8 µM); for `O=C(Nc1ccc(Cl)c(Cl)c1)c1ccco1` it is 8.5 µg/mL (≈ 33.2 µM); for `O=C(Cc1ccccc1)Nc1ccc2oc(=O)ccc2c1` it is 39.9 µg/mL (≈ 143 µM).
On to `Cc1nc(SCC(=O)Nc2ccccc2Cl)c2c(C)c(C)sc2n1`, for which the kinetic solubility came to 3.9 µg/mL (≈ 10.3 µM). Compared with the last compound, the solubility kinetic is about 10-fold lower.
For `CNCC(=O)Nc1ccc(OC(F)(F)F)cc1.Cl`, the kinetic solubility was found to be 41.4 µg/mL. Compared with the last compound, the solubility kinetic is about 11-fold higher.
Under `CC1(C)CSC(=NCCc2ccccc2)N1` stands above 35.2 µg/mL; under `O=Cc1c(C(=O)O)n(Cc2ccccc2Cl)c2ccccc12`, above 47.1 µg/mL; under `O=C(Nc1ccncc1)c1ccc2ccccc2c1`, 16.5 µg/mL (≈ 66.5 µM).
Under `CCc1ccc(C(=O)NC(=S)NCc2cccnc2)cc1` stands 39.9 µg/mL (≈ 133 µM).
Under `Cc1onc(-c2ccccc2Cl)c1C(=O)N1CCN(C=O)CC1` stands above 50.1 µg/mL; under `C/C(=N/NC(=O)CNC(=O)c1cccnc1)c1ccco1`, above 42.9 µg/mL.
Consider `Cc1ccc2c(CN(C)Cc3ccccc3)cc(=O)oc2c1C`, for which the kinetic solubility turned out to be 1.7 µg/mL (≈ 5.53 µM).
The figure for `CC1=CC2=NC(=O)/C(=C/c3cccs3)C(=N)N2O1` is 2.8 µg/mL (≈ 10.8 µM); for `CC(=O)c1ccccc1NS(=O)(=O)c1ccc2c(c1)CC(=O)N2` it is 29.9 µg/mL (≈ 90.5 µM).
The figure for `COc1cccc(C(=O)N2CCOCC2)c1` is 32.5 µg/mL (≈ 147 µM).
Under `Cc1cc([N+](=O)[O-])c2c(c1C)C1C=CCC1C(c1ccccn1)N2` (stereo not drawn) stands 9.3 µg/mL (≈ 28.9 µM); under `CCn1cnc2c1c(=O)n(CC(=O)O)c(=O)n2Cc1ccccc1`, above 49.2 µg/mL; under `O=C(CN1C(=O)CCC1=O)Nc1nc(-c2ccc3ccccc3c2)cs1`, 1.8 µg/mL (≈ 4.93 µM).
In the case of `CC1(C)Cc2nc(Cl)c(C(N)=O)cc2CO1`, the solubility (kinetic) is above 36.1 µg/mL.
Under `C=CCNC(=O)N[C@@H](Cc1ccccc1)C(=O)OC` stands above 39.3 µg/mL.
The figure for `COc1ccccc1C(=O)NCC(=O)Nc1ccc2c(c1)OCO2` is 10.5 µg/mL (≈ 32 µM); for `O=C(CNC(=O)c1ccc(F)cc1)NCc1ccccn1` it is above 43.1 µg/mL.
The figure for `O=C(CN1C(=O)c2ccccc2C1=O)Nc1cc([N+](=O)[O-])ccc1O` is above 51.2 µg/mL; for `CN(Cc1cccs1)C(=O)CSc1nc2ccccc2[nH]1` it is 45 µg/mL (≈ 142 µM); for `Cc1nc(NC(=O)/C=C/c2ccccc2)sc1C(=O)NCCO` it is 12.9 µg/mL (≈ 38.9 µM).
As to `O=C(O)Cn1c(O)c(C2=c3ccccc3=NC2=O)sc1=O`, the kinetic solubility was 39.4 µg/mL (≈ 129 µM).
As for `COC(=O)c1ccccc1NC(=S)NC(C)=O`, the solubility (kinetic) is above 37.8 µg/mL.
Take `O=C(Nc1nc2ccccc2n1CCN1CCOCC1)c1ccccc1`: the kinetic solubility was determined as 51.4 µg/mL (≈ 147 µM).
The figure for `COc1ccc(NC(=O)CN(c2c(C)cccc2C)S(C)(=O)=O)cc1` is 48.1 µg/mL (≈ 133 µM).
Under `COc1ccc(CNCCc2ccc(Cl)cc2Cl)cc1` stands 2.1 µg/mL (≈ 6.77 µM).
`COc1ccc(NC(=O)/C=N/O)cc1` registered a solubility (kinetic) above 29.1 µg/mL.
The figure for `Cc1ccc(CNC(=O)c2cccnc2Sc2cccc(Cl)c2)cc1` is 0.5 µg/mL (≈ 1.36 µM); for `COC(=O)C(C(=O)OC)c1ncc(C(F)(F)F)cc1Cl` it is 41.1 µg/mL (≈ 132 µM).
Under `CC(C)CCOc1ccc(C(=O)C[N+]2(C)CCOCC2)cc1.[I-]` stands 38.4 µg/mL; under `O=C(O)C1C2C=CC(C2)C1C(=O)NCCCN1CCCC1=O` (stereo not drawn), 44.2 µg/mL (≈ 144 µM).
Under `COc1cccc(C(c2c(N)n(C)c(=O)n(C)c2=O)C(C)[N+](=O)[O-])c1` (stereo not drawn) stands above 52.3 µg/mL; under `O=C(CCc1nc(-c2ccccn2)no1)NCc1ccc2c(c1)OCO2`, 52.5 µg/mL (≈ 149 µM).
For `COc1ccc2oc(=Nc3cc(F)ccc3F)c(C(N)=O)cc2c1`, the solubility (kinetic) is below 0.4 µg/mL.
The figure for `COc1cc(C(=O)NCCC(=O)NC(C)C)cc(OC)c1OC` is above 48.7 µg/mL; for `Cc1ccc(NC(=O)c2cc3cccc([N+](=O)[O-])c3[nH]2)cc1` it is 2.8 µg/mL (≈ 9.48 µM).
Consider `COC(=O)[C@H](c1ccccc1Cl)N1CCc2sccc2C1`, for which the kinetic solubility came to 15.1 µg/mL (≈ 46.9 µM).
Under `Cc1cnc(C(=O)OCC(=O)NCc2ccc(Cl)cc2)cn1` stands above 48 µg/mL.
Under `O=C(COC(=O)c1ccc(Cl)nc1)Nc1ccc2c(c1)OCCO2` stands 4.8 µg/mL (≈ 13.8 µM); under `O=[N+]([O-])c1ccc(Oc2ccc(S(=O)(=O)N3CCOCC3)cc2)cc1`, 18.1 µg/mL (≈ 49.7 µM); under `COc1ccc(CCC(C)NCc2cccc(Br)c2)cc1` (stereo not drawn), 34.1 µg/mL (≈ 97.9 µM).
Under `O=S(=O)(Cc1ccccc1)N1CCN(c2ncccn2)CC1` stands 2.3 µg/mL (≈ 7.22 µM); under `Nc1cncc(C(=O)O)c1`, above 20.7 µg/mL.
Turning to `N#C/C(=C\c1cccnc1)C(=O)Nc1ccc(O)cc1F`, the kinetic solubility is above 42.5 µg/mL.
Under `Cc1cccc(C)c1OCC(=O)Nc1ccc(N2CCOCC2)cc1` stands 6 µg/mL (≈ 17.6 µM); under `Cc1ccc(NC(=O)c2ccc([N+](=O)[O-])s2)cc1S(=O)(=O)N1CCOCC1`, 3.1 µg/mL (≈ 7.53 µM).
In the case of `COc1ccc(CCN2CC(C(=O)Nc3nccs3)CC2=O)cc1OC` (stereo not drawn), the kinetic solubility is above 56.3 µg/mL.
The figure for `Cc1cc(C(=O)O)c(C)n1C1CC1` is above 26.9 µg/mL.
The figure for `COc1cccc2c1SCc1ccccc1C2CC(N)=O` (stereo not drawn) is 39.2 µg/mL (≈ 131 µM); for `C=Cn1cc[n+](CC(=O)c2ccc(Cl)cc2)c1.[Br-]` it is 43.3 µg/mL; for `COc1ccc(Nc2ccc([N+](=O)[O-])cc2[N+](=O)[O-])cc1` it is 1.5 µg/mL (≈ 5.19 µM).
Consider `Cc1ccc(C)c(-n2ccnc2SCC(N)=O)c1`, for which the kinetic solubility is above 39.2 µg/mL.
As for `O=C(Cc1ccc([N+](=O)[O-])cc1)Nc1nccs1`, the solubility (kinetic) came to 4.8 µg/mL (≈ 18.2 µM).
The figure for `Cc1ccc(C(=O)NCC(=O)OCC(=O)NC2CCCCCCC2)cc1` is 53.2 µg/mL (≈ 148 µM).
Regarding `Cc1onc(NC(=O)CSCC(=O)O)c1Br`, the solubility (kinetic) is above 46.4 µg/mL.
In the case of `CCC(C)NC(=O)c1cc2cc3ccc(OC)cc3nc2o1` (stereo not drawn), the solubility (kinetic) was found to be 30.4 µg/mL (≈ 102 µM).
The figure for `O=C1CCCN1C(=O)COc1cc(F)ccc1[N+](=O)[O-]` is above 42.3 µg/mL; for `O=C(Nc1nc2ccsc2c(=O)s1)c1ccc(F)cc1Cl` it is below 0.4 µg/mL; for `CN(C)c1ccc(C(=O)OCC(=O)N2CCCCCC2)cc1` it is 33.9 µg/mL (≈ 111 µM).
Compound `COc1ccccc1Cn1c(CO)nc2ccccc21` had a kinetic solubility of 37.4 µg/mL (≈ 139 µM).
Under `CC(C)OC(=O)NCCOC(=O)Nc1ccccc1Cl` stands above 45.1 µg/mL.
The figure for `CCOc1ccc(C(=O)CCC(=O)Nc2ccncc2)cc1` is 42.9 µg/mL (≈ 144 µM); for `CCOc1ncccc1C(=O)Nc1c(C)n(C)n(-c2ccccc2)c1=O` it is above 52.9 µg/mL; for `CN(C)C(CNS(=O)(=O)c1cc([N+](=O)[O-])ccc1Cl)c1ccco1.Cl` (stereo not drawn) it is 20.6 µg/mL.
Under `Cc1ccc(NC(=S)Nc2ccc(OC(F)F)c(Cl)c2)cc1F` stands 3.5 µg/mL (≈ 9.7 µM); under `COc1ccc(C2SCC(=O)N2c2ccccc2)cc1` (stereo not drawn), 38.6 µg/mL (≈ 135 µM); under `COc1ccc(-n2c(-c3ccc(Cl)cc3)c[nH]c2=S)cc1`, 1.5 µg/mL (≈ 4.73 µM).
For `CC(C)CCNc1nc(N)c([N+](=O)[O-])c(NCCO)n1`, the solubility (kinetic) was found to be 42.3 µg/mL (≈ 149 µM). This solubility kinetic is about 28-fold higher than that of the compound before.
The figure for `Cc1ccc(NC(=O)C2COc3ccccc3O2)cc1C` (stereo not drawn) is 14.5 µg/mL (≈ 51.2 µM).
Under `O=[N+]([O-])c1ccc(CN2CCN(c3ccc(F)cc3)CC2)o1` stands 15 µg/mL (≈ 49.1 µM); under `COc1ccc(C(=O)NC(=S)NC2CCCCC2)cc1`, 4.8 µg/mL (≈ 16.4 µM).
Under `CC1(C)Cc2nc3scc(NC(=O)c4ccccc4)c3cc2CO1` stands 5.9 µg/mL (≈ 17.4 µM); under `NC(=O)c1ccc[n+]([C@H]2O[C@@H](COP(=O)([O-])OP(=O)(O)OC[C@H]3O[C@@H](n4cnc5c(N)ncnc54)[C@H](O)[C@@H]3O)[C@H](O)[C@@H]2O)c1`, above 99.5 µg/mL.
The compound `COc1ccc(Cl)cc1NC(=O)COC(=O)Cc1cc(OC)c(OC)c(OC)c1` registered a kinetic solubility of 46.6 µg/mL (≈ 110 µM).
